Converted amounts (≈) assume the structure as drawn. Where two headings read alike, the source gives them in different places.
Experiments:
[1] = system: R-type Nephotettix cincticeps; test: Mortality by isomer mixtures on rice plant (Test Example 2); format: in vivo; details: 10 ppm active ingredient, 24 hours
Excerpt: The present compound (1) and (2) were mixed in a predetermined proportion, formulated into an emulsifiable concentrate according to Formulation Example 1 and diluted with water so that the amount of active ingredient was 10 ppm.
The test preparation was sprayed over rice plant in tillering stage planted in a 1/10,000 are Wagner pot, at a rate of 15 cc per pot. After airdrying, the plant was covered with a wire-screen cage into which were released 15 female adults of R-type Nephotettix cincticeps. The pot was kept at 26° C. in an artificial climate condition. After 24 hours, the dead and alive were observed and the mortality was obtained by 3-repetition test.

[2] = Fish toxicity test, median tolerance limit 48 hours (Test Example 1); format: in vivo, Oryzias latipes (killifish); details: in vivo; Oryzias latipes, 48 hours; read-out: Fish toxicity TLm48 (a)
Experimental: (§1) Ten member group of Oryzias latipes (0.2-0.3 g/fish) was released in a 10-liter glass vessel containing 10 liters of a test preparation which was dissolved or suspended in "Tween 80" and diluted successively with dechlorinated tap water. After 48 hours, the dead and alive were counted to determine median tolerance limit (48 hours) [TLm48 (ppm)] value.

[3] = system: R-type Nephotettix cincticeps; test: Insecticidal activity test, activity to Nephotettix cincticeps (Test Example 1); format: in vivo
Experimental: 2. Insecticidal activity test.
Test emulsion preparations were prepared in the same manner as in Formulation Example 1.
Activity to Nephotettix cinciticips
The test insect was resistant to carbamates (hereinafter referred to as R-type). The active ingredient content of test preparation was varied in 4 levels within the range of 500 to 1 ppm. The test preparation was sprayed over 180-ml plastic cups grown with rice plant one-month old from sowing and placed on a turn table, the application rate having been 15 cc/2 cups. After air drying, the plant was covered with a wire-screen cage. A group of 15 female adults of R-type Nephotettix cincticeps was released in each cage and kept at 26° C. in an artificial climate condition. After 24 hours, the dead and alive were observed. The median lethal concentration [LC50 (ppm)] was calculated from the mortality determined by 3-repetition test.

[4] = system: Oryzias latipes / Nephotettix cincticeps; test: Fish safety coefficient calculated from fish toxicity and insecticidal activity (Test Example 1); details: for Safety coefficient to fishes (a)/(b): TLm48 (Oryzias latipes) divided by concentration in water at LC50 for N. cincticeps
Experimental: In order to make more clear the low fish toxicity and the high activity to target insects, which are charcteristic of the compounds of this invention, a fish safety coefficient was calculated from the test results of fish toxicity and insecticidal activity by the following equation and shown in Table 2. [formula]
In the case of N. cincticeps, calculation was based on a hyothetical concentration of the test compound in water obtained by assuming that a test preparation of the active ingredient content corresponding to LC50 (ppm) was sprayed over a submerged paddy field, 5 cm in depth of water, at a rate of 100 liters per 10 ares and total active ingredient was absorbed by the water.
For example, in the case of compound (1) of this invention, the quantity of water per 10 ares of the submerged paddy field, 5 cm in depth of water, is 50 tons. If a preparation of the active ingredient content equivalent to LC50 (ppm) of the compound (1) is sprayed at a rate of 100 liters per 10 ares, the concentration of the compound (1) in the water is 0.007 ppm. The fish toxicity [TLm48 ] of the compound (1) is 6.0 ppm. The fish safety coefficient (857.1) is obtained by dividing 6.0 by 0.007.

[5] = Oral toxicity test (Test Example 10); details: in vivo, male mouse, corn oil
Experimental: The present compound (1) was dissolved or suspended in a corn oil, and the resulting solution was orally administered to a male mouse (18 to 22 g) at a rate of 0.2 ml/10 g body weight. After 24 hours, the mortality was examined to obtain the median lethal dose (LD50 mg/kg).

[6] = Toxicity to carps (Test Example 12); format: in vivo; details: carp, dechlorinated tap water, read-out: TLm48
Experimental: (§2) The dust of the present compound (1) prepared in Formulation Example 2 was diluted with dechlorinated tap water to a predetermined concentration of active ingredient. Ten liters of the test solution was placed in a 10-liter glass vessel, and 10 killifishes (Oryzias latipes) were liberated therein. After 48 hours, the dead and alive were examined, and TLm48 (ppm) was calculated from the concentration of active ingredient.
Toxicity to carps was tested according to the test method for toxicity to fishes described in Test Example 11, and TLm48 (ppm) values after 48 hours were obtained.

[7] = system: Oryzias latipes; test: Fish toxicity test, median tolerance limit 48 hours (Test Example 1); format: in vivo, Oryzias latipes (killifish); details: killifish, in words
Experimental: as §1

[8] = system: Laodelphax striatellus; test: Insecticidal activity, Laodelphax striatellus (Test Example 4); format: in vivo; details: Laodelphax striatellus female adults, 24 hours, 26° C.
Experimental: The emulsion preparation containing the compound (1) of this invention, described in Formulation Example 1, was diluted with water. The active ingredient content of the test prepartion was varied in 4 levels within the range of 150 to 10 ppm. The test preparation was sprayed over 180 ml plastic cups grown with rice plant and placed on a turn table the application rate having been 15 cc/2 cups. After air drying, the plant was covered with a wire-screen cage. A group of 15 female adults of Laodelphax striatellus was released in each cage and kept at 26° C. in an artificial climate condition. After 24 hours, the dead and alive were observed. The median lethal concentration [LC50 (ppm)] was calculated from the mortality determined by 3-repetition test.

[9] = system: WHO strain housefly female adults (Musca domestica); test: Topical application to housefly (Test Example 5); format: in vivo; details: 24 hours
Experimental: The present compound (1) was diluted with acetone to four different concentrations.
The acetone dilute solution was topically applied to the ventral thorax of WHO strain housefly female adults (Musca domestica), at a rate of 0.5 μl/adult by means of a microsyringe.
The adults were then liberated in a plastic cup of 12 cm in diameter and given a 1% sugar water. After 24 hours, the dead and alive were examined. The median lethal does (LD50 μg/adult) was obtained from the mortality of 50 adults per group.

[10] = system: third instar larvae of rice stem borer (Chilo suppressalis); test: Rice seedling dipping test, rice stem borer (Test Example 6); format: in vivo; details: 240 h, 10 days, read-out: larvae killed
Experimental: The emulsifiable concentrate of the present compound (1) prepared in Formulation Example 1 was diluted with water so that the concentration of active ingredient was 500 ppm. Five rice seedlings which had elapsed 10 days after sowing were dipped in the dilute solution and air-dried. The rice seedlings and 10 third instar larvae of rice stem borer (Chilo suppressalis) were placed in a plastic cup (diameter 5.5 cm, height 3.5 cm) which was then placed in an artificial climate chamber kept at 26° C.

[11] = system: full grown larvae of Aedes aegypty (Culex pipiens pallens); test: Mosquito larvae test (Test Example 7); format: in vivo; details: 24 hours, read-out: larvae killed
Experimental: The emulsifiable concentrate of the present compound (1) prepared in Preparation example 1 was diluted with distilled water so that the concentration of active ingredient was 0.1 ppm. One hundred milliliters of the dilute solution was placed in a 180-ml plastic cup, and 30 full grown larvae of Aedes aegypty (Culex pipiens pallens) were liberated therein. After 24 hours, 100% of the larvae could be killed.

[12] = system: carmine mites (Tetranychus cinnabarinus); test: Acaricidal test on rice plants, carmine mites (Test Example 8); format: in vivo; details: 500 ppm, after 10 days
Experimental: The emulsifiable concentrate of the present compound (1) prepared in Formulation Example 1 was diluted with water so that the concentration of active ingredient was 500 ppm. The dilute solution was then thoroughly sprayed on rice plants (grown in a 1/10,000 are Wagner's pot) on which carmine mites (Tetranychus cinnabarinus) in all stages were made parasitic.

[13] = system: green rice leafhopper (Nephotettix cincticeps); test: Residual effect test (Test Example 9); format: in vivo; details: 400 ppm, 24 hours
Experimental: The emulsifiable concentrate of the present compound (1) prepared in Formulation Example 1 was diluted with water so that the concentration of active ingredient was 400 ppm. Thereafter, 20 cc of the dilute solution was sprayed on rice plants grown in a 1/10,000 are Wagner's pot. The rice plants were air-dried and covered with a wire-screen cage, and 15 female adults of green rice leafhopper (Nephotettix cincticeps) were liberated therein. After 24 hours, the dead and alive were examined to obtain mortality. In order to examine the residual effect, the pot was then left as it was for 7 days, and the test insects were liberated in the same manner as above. After 24 hours, the mortality was examined. The experiment was carried out in a greenhouse and the number of repetitions was three.

[14] = Fish toxicity of dust, killifishes (Test Example 11); format: in vivo; details: dechlorinated tap water, dust of Formulation Example 2, Oryzias latipes, read-out: TLm48
Experimental: as §2

[15] = system: green rice leafhopper (Nephotettix cincticeps); test: Model paddy field box test, green rice leafhopper (Test Example 13); format: in vivo; details: wettable powder, 100 ppm, 100 liter/10 are, after 48 hours
Experimental: (§3) The wettable powder of the present compound (1) prepared in Formulation Example 3 was diluted with water so that the concentration of active ingredient was 100 ppm. Soil was placed in a plastic box [5m×5m×2m (deep)] to a level of 50 cm from the bottom, and rice plants about 50 cm high were transplanted at intervals of 50 cm. Water was then placed in the bos so that water depth was 5 cm, and 20 killifishes (Oryzias latipes) were liberated therein. Thereafter, the above dilute solution was sprayed on the box at a rate of 100 liter/10 are. The solution fell on the rice plants as well as on the water surface.
(§4) One hour after treatment, 100 female adults of green rice leafhopper (Nephotettix cincticeps) were liberated in the box which was immediately covered with a net.

[16] = system: killifishes (Oryzias latipes); test: Model paddy field box test, killifishes (Test Example 13); format: in vivo; details: wettable powder, 100 ppm, 100 liter/10 are, water depth 5 cm, after 48 hours
Experimental: as §3, §4

[17] = R-type (carbamate-resistant) Nephotettix cincticeps female adults, 24 hours, 26° C., read-out: LC50

`CC(C)=CC1C(C(=O)OCc2cccc(Oc3ccccc3)c2)C1(C)C` (racemic) [(B), m-phenoxybenzyl dl-cis,trans chrysanthemate] showed a mortality at 10 ppm [1] of 10%.

In the case of `CNC(=O)Oc1ccc(C)c(C)c1` [(F)], the LC50 at 48 h [2] is reported as 11.9 µg/mL (≈ 66.4 µM), the LC50 ([3]; Nephotettix cincticeps, 24 h) is reported as 350 µg/mL (≈ 1950 µM) and the “Safety coefficient to fishes (a)/(b)” value [4] is reported as 17.0. For the same molecule, the LD50 at 24 h [5] was 60 mg/kg.

In the case of `CC1(C)C(C=C(Cl)Cl)C1C(=O)OC(C#N)c1cccc(Oc2ccc(Br)cc2)c1` (racemic) [(A), m-(p-bromophenoxy)-α-cyanobenzyl dl-cis, trans-2,2-dimethyl-3-(2,2-dichlorovinyl)cyclopropanecarboxylate], the LC50 at 48 h [2] is reported as 0.9 µg/mL (≈ 1.82 µM), the LC50 [3, 17] is reported as 8 µg/mL (≈ 16.2 µM) and the “Safety coefficient to fishes (a)/(b)” value [4] is reported as 56.3.

In the case of `CC1(C)C(C=C(Cl)Cl)C1C(=O)OCc1cccc(Oc2ccccc2)c1` (racemic) [(C), m-phenoxybenzyl dl-cis,trans-2,2-dimethyl-3-(2,2-dichlorovinyl)cyclopropanecarboxylate], the LC50 at 48 h [2] is reported as 0.027 µg/mL (≈ 0.069 µM), the LC50 [3, 17] is reported as 18 µg/mL (≈ 46 µM) and the “Safety coefficient to fishes (a)/(b)” value [4] is reported as 0.8. For the same molecule, the LD50 at 24 h [5] was 650 mg/kg.

For `CC1(C)C(C=C(Cl)Cl)C1C(=O)OC(C#N)c1cccc(Oc2ccccc2)c1` (racemic) [Reference compound (D), m-phenoxy-α-cyanobenzyl dl-cis,trans-2,2-dimethyl-3-(2,2-dichlorovinyl)-cyclopropanecarboxylate], the LC50 at 48 h [2] was 0.026 µg/mL (≈ 0.0625 µM), the LC50 [3, 17] was 5 µg/mL (≈ 12 µM) and the “Safety coefficient to fishes (a)/(b)” value [4] was 2.6. The LD50 at 24 h [5] was 112 mg/kg and the LC50 at 48 h [6] was no more than 0.01 µg/mL.

With `CC1(C)C(C=C(Cl)Cl)C1C(=O)OC(C#N)c1cccc(Oc2ccc(F)cc2)c1` (racemic) [(E), m-(p-fluorophenoxy)-α-cyanobenzyl dl-cis,trans-2,2-dimethyl-3-(2,2-dichlorovinyl)cyclopropanecarboxylate] the LC50 at 48 h [2] was 0.003 µg/mL (≈ 0.00691 µM), the LC50 [3, 17] was 5 µg/mL (≈ 11.5 µM) and the “Safety coefficient to fishes (a)/(b)” value [4] was 0.3. For the same molecule, the LD50 at 24 h [5] was 300 mg/kg.

With `CC1(C)[C@H](C=C(Cl)Cl)[C@H]1C(=O)OC(C#N)c1cccc(Oc2ccc(Br)cc2)c1` (relative stereo) [Compound (1), m-(p-bromophenoxy)-α-cyanobenzyl dl-trans-2,2-dimethyl-3-(2,2-dichlorovinyl)cyclopropanecarboxylate] the LC50 at 48 h [2] was 6 µg/mL (≈ 12.1 µM), the “toxicity to killifish compared with reference compounds” value [7] was “lower in toxicity to killifish than the reference compounds (A), (C), (D) and (E)” and the “insecticidal activity compared with reference compounds” value ([3]; Nephotettix cincticeps, in words) was “higher in insecticidal activity than the reference compounds (A), (C) and (F)”. For the same molecule, the LC50 [3, 17] was 3.5 µg/mL (≈ 7.07 µM), the “Safety coefficient to fishes (a)/(b)” value [4] was 857.1 and the “safety coefficient to fishes compared with reference compounds” value ([4]; in words) was “shows a very high value as compared with that of the reference compounds”. For the same molecule, the LC50 [8] was 70 µg/mL (≈ 141 µM), the LD50 [9] was 0.035 μg/adult and the mortality at 500 ppm [10] was 100%. The mortality at 0.1 ppm [11] was 100%, the “degree of damage by the carmine mites” value [12] was “the spreading of damage could be prevented” and the “Mortality (%), effect immediately after treatment” value [13] was 100%. For the same molecule, the “Mortality (%), effect 7 days after treatment” value ([13]; insects liberated 7 days after treatment) was 100%, the LD50 at 24 h [5] was greater than 2000 mg/kg and the LC50 at 48 h [14] was greater than 10 µg/mL. The LC50 at 48 h [6] was greater than 10 µg/mL, the “green rice leafhoppers found” value [15] was “no green rice leafhoppers were found” and the survival of killifishes [16] was “all of the killifishes were alive”.

Source: US4265906A, “Low mammalian toxic and/or low fish toxic insecticides and/or acaricides” (priority 1978, dated 1981)
